Data taken from US9833497B2, “Human originated EGF domain proteins and use of the same” (CHENGDU SOURCEBIO LIMITED-LIABILITY COMPANY, priority 2013, dated 2017).

Legend:
Type in all cases: cell-based
[1] = test system: Proteus vulgaris; assay: MIC against Gram-negative bacteria: Proteus vulgaris; conditions: 5×10^5 CFU/mL
Procedure, shortened: (§1)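 Bacteria grown in LB at 37° C to McFarland 0.5, resuspended and seeded at 5×10^5 CFU/mL in 96-well plates. Purified human EGF-domain proteins two-fold serially diluted, triplicate wells; cultured at 37° C, shaking 175 rpm. MIC = lowest protein concentration with no growth.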

[2] = test system: Serratia marcescens; assay: MIC against Gram-negative bacteria: Serratia marcescens; conditions: 5×10^5 CFU/mL
Procedure, shortened: as §1

[3] = test system: Citrobacter diversus; assay: MIC against Gram-negative bacteria: Citrobacter diversus; conditions: 5×10^5 CFU/mL
Procedure, shortened: as §1

[4] = test system: Proteus mirabilis; assay: MIC against Gram-negative bacteria: Proteus mirabilis; conditions: 5×10^5 CFU/mL
Procedure, shortened: as §1

[5] = test system: Moraxella catarrhalis; assay: MIC against Gram-negative bacteria: Moraxella catarrhalis; conditions: 5×10^5 CFU/mL
Procedure, shortened: as §1

[6] = test system: E. coli DH5α; assay: Antibacterial activity: MIC and growth curve against E. coli DH5α in 96-well plate; conditions: minimal inhibitory concentration against E. coli DH5α; 96-well plate, 5×10^5 CFU/mL, 37° C., judged after 8 h
Procedure, shortened: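 MIC taken as lowest protein level with no bacterial growth, tracked by A600 every 30 min during 37 °C, 175 rpm culture. Two-fold protein series 50-12.5 μg/mL final, triplicate wells, against 5×10^5 CFU/mL of LB-washed mid-log cells.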

[7] = test system: Aeromonas hydrophila; assay: MIC against Gram-negative bacteria: Aeromonas hydrophila; conditions: 5×10^5 CFU/mL
Procedure, shortened: as §1

[8] = test system: Klebsiella pneumonia; assay: MIC against Gram-negative bacteria: Klebsiella pneumonia; conditions: 5×10^5 CFU/mL
Procedure, shortened: as §1

[9] = test system: E. coli BL21; assay: MIC against Gram-negative bacteria: E. coli BL21; conditions: 5×10^5 CFU/mL
Procedure, shortened: as §1

[10] = test system: Pseudomonas aeruginosa; assay: MIC against Gram-negative bacteria: Pseudomonas aeruginosa; conditions: 5×10^5 CFU/mL
Procedure, shortened: as §1

[11] = test system: Enterobacter cloacae; assay: MIC against Gram-negative bacteria: Enterobacter cloacae; conditions: 5×10^5 CFU/mL
Procedure, shortened: as §1

[12] = Proteus vulgaris, 96-well plate, 37° C., 10 h
[13] = Serratia marcescens, 96-well plate, 37° C., 10 h
[14] = Citrobacter diversus, 96-well plate, 37° C., 10 h
[15] = Proteus mirabilis, 96-well plate, 37° C., 10 h
[16] = Moraxella catarrhalis, 96-well plate, 37° C., 10 h
[17] = Aeromonas hydrophila, 96-well plate, 37° C., 10 h
[18] = Klebsiella pneumonia, 96-well plate, 37° C., 10 h
[19] = Pseudomonas aeruginosa, 96-well plate, 37° C., 10 h
[20] = Enterobacter cloacae, 96-well plate, 37° C., 10 h
[21] = Proteus vulgaris, 10 h cultivation at 37° C.
[22] = Serratia marcescens, 10 h cultivation at 37° C.
[23] = Citrobacter diversus, 10 h cultivation at 37° C.
[24] = Proteus mirabilis, 10 h cultivation at 37° C.
[25] = Moraxella catarrhalis, 10 h cultivation at 37° C.
[26] = Aeromonas hydrophila, 10 h cultivation at 37° C.
[27] = Klebsiella pneumonia, 10 h cultivation at 37° C.
[28] = Pseudomonas aeruginosa, 10 h cultivation at 37° C.
[29] = Enterobacter cloacae, 10 h cultivation at 37° C.

PRT45 (SINSCPNNCSGHGKCTTSVSVPSQVYCECDKYWKGEACD; listed as Homo sapiens)
MIC (μg/mL) P. vulgaris [1, 12]: 12.5 µg/mL | MIC (μg/mL) S. marcescens [2, 13]: 50 µg/mL | MIC (μg/mL) C. diversus [3, 14]: 12.5 µg/mL | MIC (μg/mL) P. mirabilis [4, 15]: 50 µg/mL | MIC (μg/mL) M. catarrhalis [5, 16]: 25 µg/mL | MIC [6]: 50 µg/mL | MIC (μg/mL) A. hydrophila [7, 17]: 25 µg/mL | MIC (μg/mL) K. pneumonia [8, 18]: 25 µg/mL | MIC (μg/mL) E. coli BL21 ([9]; 96-well plate, 37° C., 10 h): 25 µg/mL | MIC (μg/mL) P. aeruginosa [10, 19]: 12.5 µg/mL | MIC (μg/mL) E. cloacae [11, 20]: 50 µg/mL

PRT199 (CLPETCNMKGICNNKHHCHCGYGWSPPYCQ; listed as Homo sapiens)
MIC (μg/mL) P. vulgaris ([1]; P. vulgaris, 10 h cultivation at 37° C.): 12.5 µg/mL | MIC (μg/mL) S. marcescens ([2]; S. marcescens, 10 h cultivation at 37° C.): 25 µg/mL | MIC (μg/mL) C. diversus ([3]; C. diversus, 10 h cultivation at 37° C.): 12.5 µg/mL | MIC (μg/mL) P. mirabilis ([4]; P. mirabilis, 10 h cultivation at 37° C.): 12.5 µg/mL | MIC (μg/mL) M. catarrhalis ([5]; M. catarrhalis, 10 h cultivation at 37° C.): 12.5 µg/mL | MIC [6]: 25 µg/mL | MIC (μg/mL) A. hydrophila ([7]; A. hydrophila, 10 h cultivation at 37° C.): 12.5 µg/mL | MIC (μg/mL) K. pneumonia ([8]; K. pneumonia, 10 h cultivation at 37° C.): 12.5 µg/mL | MIC (μg/mL) E. coli BL21 ([9]; 10 h cultivation at 37° C.): 12.5 µg/mL | MIC (μg/mL) P. aeruginosa ([10]; P. aeruginosa, 10 h cultivation at 37° C.): 12.5 µg/mL | MIC (μg/mL) E. cloacae ([11]; E. cloacae, 10 h cultivation at 37° C.): 12.5 µg/mL

PRT650 (DIDECQQGNLCVNGQCKNTEGSFRCTCGQGYQLSAAKDQCE; listed as Homo sapiens)
MIC P. vulgaris ([1]; 96-well plate, 37° C., 10 h): 12.5 µg/mL | MIC S. marcescens ([2]; 96-well plate, 37° C., 10 h): 50 µg/mL | MIC C. diversus ([3]; 96-well plate, 37° C., 10 h): 12.5 µg/mL | MIC P. mirabilis ([4]; 96-well plate, 37° C., 10 h): 50 µg/mL | MIC M. catarrhalis ([5]; 96-well plate, 37° C., 10 h): 25 µg/mL | MIC [6]: 12.5 µg/mL | MIC A. hydrophila ([7]; 96-well plate, 37° C., 10 h): 25 µg/mL | MIC K. pneumonia ([8]; 96-well plate, 37° C., 10 h): 12.5 µg/mL | MIC E. coli BL21 ([9]; 96-well plate, 37° C., 10 h): 25 µg/mL | MIC P. aeruginosa ([10]; 96-well plate, 37° C., 10 h): 50 µg/mL | MIC E. cloacae ([11]; 96-well plate, 37° C., 10 h): 50 µg/mL

PRT1394 (VRDGCPGLCFGNGRCTLDQNGWHCVCQVGWSGTGCN; listed as Homo sapiens)
MIC against P. vulgaris [1, 21]: 25 µg/mL | MIC against S. marcescens [2, 22]: 50 µg/mL | MIC against C. diversus [3, 23]: 50 µg/mL | MIC against P. mirabilis [4, 24]: 12.5 µg/mL | MIC against M. catarrhalis [5, 25]: 25 µg/mL | MIC [6]: 50 µg/mL | MIC against A. hydrophila [7, 26]: 25 µg/mL | MIC against K. pneumonia [8, 27]: 50 µg/mL | MIC against E. coli BL21 ([9]; 10 h cultivation at 37° C.): 12.5 µg/mL | MIC against P. aeruginosa [10, 28]: 12.5 µg/mL | MIC against E. cloacae [11, 29]: 12.5 µg/mL

PRT1412 (RASCPVLCSGNGQYMKGRCLCHSGWKGAECD; listed as Homo sapiens)
MIC against P. vulgaris [1, 21]: 50 µg/mL | MIC against S. marcescens [2, 22]: 25 µg/mL | MIC against C. diversus [3, 23]: 25 µg/mL | MIC against P. mirabilis [4, 24]: 25 µg/mL | MIC against M. catarrhalis [5, 25]: 12.5 µg/mL | MIC [6]: 25 µg/mL | MIC against A. hydrophila [7, 26]: 50 µg/mL | MIC against K. pneumonia [8, 27]: 12.5 µg/mL | MIC against E. coli BL21 ([9]; 10 h cultivation at 37° C.): 50 µg/mL | MIC against P. aeruginosa [10, 28]: 25 µg/mL | MIC against E. cloacae [11, 29]: 25 µg/mL

PRT1305 (SANACSAFKCHHGQCHISDQGEPYCLCQPGFSGEHCQ; listed as Homo sapiens)
MIC against P. vulgaris [1, 12]: 25 µg/mL | MIC against S. marcescens [2, 13]: 12.5 µg/mL | MIC against C. diversus [3, 14]: 12.5 µg/mL | MIC against P. mirabilis [4, 15]: 25 µg/mL | MIC against M. catarrhalis [5, 16]: 50 µg/mL | MIC [6]: 12.5 µg/mL | MIC against A. hydrophila [7, 17]: 50 µg/mL | MIC against K. pneumonia [8, 18]: 50 µg/mL | MIC against E. coli BL21 ([9]; 96-well plate, 37° C., 10 h): 50 µg/mL | MIC against P. aeruginosa [10, 19]: 12.5 µg/mL | MIC against E. cloacae [11, 20]: 12.5 µg/mL
